Laboratory results published in article PMC11117652, “The Construction and Application of a New Screening Method for Phosphodiesterase Inhibitors” (Biosensors, 2024).
“And” between values parts separate entries of the source, which are not always exact repeats. Equal values may be shown once. Read-outs that look alike come from different tables or passages of the source.

Assays:
cAMP-related PDEs = experiment: GloSensor live-cell screening model targeting cAMP (pGloSensor-22F cAMP plasmid in HEK293T cells, forskolin-stimulated); type: cell-based, human; settings: for IC50: Homo sapiens, HEK-293T, HEK293T cells, 5 μM forskolin, n = 3, read-out: IC50 detected using the cell screening model targeting cAMP; for Luminescence Signal (%): cAMP cell screening model, (experimental group - blank control)/blank control luminescence x 100%, compound concentration not given
Description: The HEK293T human embryonic kidney cell line was purchased from SunnCell (Wuhan, China). After recovery, HEK293T cells were passaged 3–4 times a week and cultured at 37 °C in 5% CO2. The culture medium consisted of DMEM, 10% FBS, and 1% antibiotic solution.
Cells were grown to a density of 70–80% in a 6 cm culture dish, the original culture medium was discarded, and 3 mL Opti-MEM was added. A total of 5 μL lipo2000 transfection reagents and 7 μL plasmids were each diluted to 50 μL with Opti-MEM. The above two solutions were mixed, allowed to stand for 20 min, and then added to the cell culture medium. They were then incubated with 5% CO2 at 37 °C for 5 h. The original culture medium was discarded and replaced with the DMEM culture medium. After overnight cultivation at 37 °C and 5% CO2, the transfected cells were transferred to a 96-well plate and cultured under the same conditions for 9 h.
The original culture medium was replaced with 80 μL/well loaded culture medium (containing 2 mM D-Luciferin protein) and incubated at room temperature (20–23 °C) in the dark for 2 h. A total of 10 μL/well with a concentration of 50 μM forskolin (for cAMP testing) or 250 μM SNAP (for cGMP testing) was added to the sample culture medium to increase the level of background cyclic nucleotides in the cells. According to the detection requirements, a certain concentration of analytes was sequentially added to different wells, and the luminescence signal was measured using the SynergyNeo2 (Agilent, Santa Clara, CA, USA) instrument at time 0. The measurement was conducted every 5 min, and the longest duration was based on the start of the luminescence signal’s decline.
(§1) Data analysis was carried out using Microsoft Excel and GraphPad Prism 8 software (version 8.0.2 for Windows, GraphPad Software, San Diego, CA, USA). The data in the luminescence signal from the replica well were averaged to produce a response vs. time curve. The cell screening results of the compounds were expressed as percentages (the difference in luminescence signals between the experimental group and the blank control group/blank control group luminescence signal × 100%). For the measurement of IC50, at least seven concentrations of chemicals were used, and IC50 values were calculated using the nonlinear method.
Considering the detection efficiency, the possible toxicity of the reagent to cells, and the Z-factor, the optimal concentration of the AC agonist forskolin required for the cell screening model targeting cAMP was set at 5 μM.
To determine the shortest detection time for the two cell models, the luminescence signal–time curve was established. Based on the variations in luminescence detection values over time from two sets of data (Figure 2), it was determined that the detection time for cell screening models targeting cAMP should not be less than 35 min, while the detection time for cell screening models targeting cGMP should not be less than 30 min.

cGMP-related PDEs = experiment: GloSensor live-cell screening model targeting cGMP (pGloSensor-42F cGMP plasmid in HEK293T cells, SNAP-stimulated); type: cell-based; settings: Homo sapiens, HEK-293T, read-out: IC50 detected using the cell screening model targeting cGMP
Description: The HEK293T human embryonic kidney cell line was purchased from SunnCell (Wuhan, China). After recovery, HEK293T cells were passaged 3–4 times a week and cultured at 37 °C in 5% CO2. The culture medium consisted of DMEM, 10% FBS, and 1% antibiotic solution. Cells were grown to a density of 70–80% in a 6 cm culture dish, the original culture medium was discarded, and 3 mL Opti-MEM was added. A total of 5 μL lipo2000 transfection reagents and 7 μL plasmids were each diluted to 50 μL with Opti-MEM. The above two solutions were mixed, allowed to stand for 20 min, and then added to the cell culture medium. They were then incubated with 5% CO2 at 37 °C for 5 h. The original culture medium was discarded and replaced with the DMEM culture medium. After overnight cultivation at 37 °C and 5% CO2, the transfected cells were transferred to a 96-well plate and cultured under the same conditions for 9 h. The original culture medium was replaced with 80 μL/well loaded culture medium (containing 2 mM D-Luciferin protein) and incubated at room temperature (20–23 °C) in the dark for 2 h. A total of 10 μL/well with a concentration of 50 μM forskolin (for cAMP testing) or 250 μM SNAP (for cGMP testing) was added to the sample culture medium to increase the level of background cyclic nucleotides in the cells. According to the detection requirements, a certain concentration of analytes was sequentially added to different wells, and the luminescence signal was measured using the SynergyNeo2 (Agilent, Santa Clara, CA, USA) instrument at time 0. The measurement was conducted every 5 min, and the longest duration was based on the start of the luminescence signal’s decline. Data analysis was carried out using Microsoft Excel and GraphPad Prism 8 software (version 8.0.2 for Windows, GraphPad Software, San Diego, CA, USA). The data in the luminescence signal from the replica well were averaged to produce a response vs. time curve. The cell screening results of the compounds were expressed as percentages (the difference in luminescence signals between the experimental group and the blank control group/blank control group luminescence signal × 100%). For the measurement of IC50, at least seven concentrations of chemicals were used, and IC50 values were calculated using the nonlinear method. […] Similar to the cell screening models targeting cAMP, the cell screening models targeting cGMP could not effectively detect the ability of sildenafil to increase intracellular cGMP levels when the GC agonist SNAP was not present or was at low concentrations. […] To determine the shortest detection time for the two cell models, the luminescence signal–time curve was established.

[1] = target: T1, Recombinant human PDE7A/HCP1 protein (Homo sapiens, UniProt Q13946); experiment: In vitro enzymatic activity assay (PDE-Glo Phosphodiesterase Assay), PDE7A; type: biochemical
T1 construct: purchased Abcam ab125786
T1 sequence (Q13946 whole entry): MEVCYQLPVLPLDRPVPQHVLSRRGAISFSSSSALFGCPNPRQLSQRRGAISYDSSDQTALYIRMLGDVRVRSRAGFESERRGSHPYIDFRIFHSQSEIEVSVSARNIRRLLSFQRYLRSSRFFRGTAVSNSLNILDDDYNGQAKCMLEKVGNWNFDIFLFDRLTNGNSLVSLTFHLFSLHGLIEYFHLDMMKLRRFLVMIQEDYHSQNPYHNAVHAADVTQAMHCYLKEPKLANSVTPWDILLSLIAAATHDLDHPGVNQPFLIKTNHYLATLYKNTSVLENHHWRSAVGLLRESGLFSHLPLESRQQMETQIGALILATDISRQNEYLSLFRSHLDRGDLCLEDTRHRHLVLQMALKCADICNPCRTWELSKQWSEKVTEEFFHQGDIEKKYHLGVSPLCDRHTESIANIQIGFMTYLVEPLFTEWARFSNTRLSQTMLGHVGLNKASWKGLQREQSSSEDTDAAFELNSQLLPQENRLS
Description: (§2) Penicillin–Streptomycin solution (10,000 U/mL Penicillin, 10,000 μg/mL Streptomycin; Cat #C100C5) was obtained from NCM Biotech (Suzhou, China). Fetal Bovine Serum (FBS; Cat #BC-SE-FBS01) and phosphate-buffered saline (PBS; Cat #10010001) were obtained from Sbjbio (Nanjing, China). Trypsin-EDTA Solution (Cat #BL512A) was obtained from Biosharp (Hefei, China). DMEM medium (High Glucose; Cat #XB01-01) was obtained from VivaCell (Shanghai, China). Opti-MEM medium (Cat #Lvn1012A) was obtained from Livning (Beijing, China). […] The Lipofectamine™ 2000 Transfection Kit (Cat #11668500) was obtained from Thermo Fisher Scientific (Waltham, MA, USA). The pGloSensor™-22F cAMP Plasmid map (Cat #E2301), pGloSensor™-42F cGMP Plasmid map (Cat #CS177001), and PDE-Glo™ Phosphodiesterase Assay (Cat #V1361) were purchased from Promega (Madison, WI, USA). Recombinant human PDE4B protein (Cat #ab125582) and recombinant human PDE7A/HCP1 protein (Cat #ab125786) were obtained from Abcam (Cambridgeshire, UK). Compounds 1–7 were provided by Guoqiang Li’s research group (School of Medicine and Pharmacy, Ocean University, Qingdao, China).
(§3) The inhibitory activities of the compounds against PDE4B and PDE7A were determined according to the procedures required for the PDE-Glo™ Phosphodiesterase Assay.
as §1

PDE5 = tested on: PDE5; design: method as in PMID 12646997; settings: cited from earlier work
[2] = target: T2, Recombinant human PDE4B protein (Homo sapiens, UniProt Q07343); experiment: In vitro enzymatic activity assay (PDE-Glo Phosphodiesterase Assay), PDE4B; type: biochemical
T2 construct: purchased Abcam ab125582
T2 sequence (Q07343 whole entry): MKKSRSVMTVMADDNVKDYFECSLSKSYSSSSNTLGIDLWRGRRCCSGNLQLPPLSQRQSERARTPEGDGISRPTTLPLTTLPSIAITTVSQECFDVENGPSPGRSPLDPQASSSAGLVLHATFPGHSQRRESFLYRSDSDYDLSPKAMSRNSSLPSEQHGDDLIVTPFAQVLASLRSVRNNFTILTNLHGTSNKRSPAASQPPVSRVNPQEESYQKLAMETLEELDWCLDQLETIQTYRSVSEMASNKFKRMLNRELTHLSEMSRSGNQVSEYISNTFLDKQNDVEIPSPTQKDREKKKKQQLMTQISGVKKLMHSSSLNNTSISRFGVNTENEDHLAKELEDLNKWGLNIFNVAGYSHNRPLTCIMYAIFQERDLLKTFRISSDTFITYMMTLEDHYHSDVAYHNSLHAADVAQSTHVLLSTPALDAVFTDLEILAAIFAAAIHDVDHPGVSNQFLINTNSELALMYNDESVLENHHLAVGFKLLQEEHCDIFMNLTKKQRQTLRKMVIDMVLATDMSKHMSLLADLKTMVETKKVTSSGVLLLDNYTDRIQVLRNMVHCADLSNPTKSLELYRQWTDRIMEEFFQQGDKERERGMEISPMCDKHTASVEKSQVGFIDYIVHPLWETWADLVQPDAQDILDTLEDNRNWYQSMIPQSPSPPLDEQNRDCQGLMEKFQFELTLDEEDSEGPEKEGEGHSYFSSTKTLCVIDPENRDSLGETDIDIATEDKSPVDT
Description: as §2, with “UK).” for “UK). Compounds 1–7 were provided by Guoqiang Li’s research group (School of Medicine and Pharmacy, Ocean University, Qingdao, China).”
as §3
Data analysis was carried out using Microsoft Excel and GraphPad Prism 8 software (version 8.0.2 for Windows, GraphPad Software, San Diego, CA, USA). The data in the luminescence signal from the replica well were averaged to produce a response vs. time curve. […] For the measurement of IC50, at least seven concentrations of chemicals were used, and IC50 values were calculated using the nonlinear method.

[3] = HEK293T cells, 25 μM SNAP, n = 3

SMILES | Luminescence Signal (%) (cAMP-related PDEs) | IC50 [1] | IC50 [2] [µM] | also measured
COc1ccc(C2CNC(=O)C2)cc1OC1CCCC1 (stereo not shown) [Rolipram, rolipram, reference compound] | 300 |  |  | IC50 (cAMP-related PDEs): ~0.1 µM; difference in luminescence signal values between rolipram and PBS groups (cAMP-related PDEs; rolipram 5 μM, forskolin 5 μM, cAMP cell model): over 1000
CC(C)Cn1c(=O)n(C)c(=O)c2[nH]cnc21 [IBMX, Isobutylmethylxanthine, reference compound] |  |  |  | IC50 (cAMP-related PDEs): 28.6 µM; IC50 (cGMP-related PDEs; [3]): 184 µM
CCCc1nn(C)c2c(=O)[nH]c(-c3cc(S(=O)(=O)N4CCN(C)CC4)ccc3OCC)nc12 [Sildenafil, sildenafil] |  |  |  | IC50 (cGMP-related PDEs; [3]): ~0.1 µM
Cc1nc(-c2cnn(C)c2-c2ccc(C(F)(F)F)cn2)c2c(N3CCC3)ncnn12 [PF-999, PF-05180999, reference compound] |  |  |  | IC50 (cAMP-related PDEs): 142 µM; IC50 (cGMP-related PDEs; [3]): 45.6 µM
Cc1ccc([N+](=O)[O-])cc1S(=O)(=O)N(C)C [BRL-50481, reference compound] |  | 0.2 µM |  | 
COc1ccc(-c2oc3c(CC=C(C)C)c(O[C@@H]4O[C@H](CO)[C@@H](O)[C@H](O)[C@H]4O)cc(O)c3c(=O)c2O[C@@H]2O[C@@H](C)[C@H](O)[C@@H](O)[C@H]2O)cc1 [Icariin] |  |  |  | IC50 (PDE5): 0.432 µM; IC50 (cGMP-related PDEs): 642 µM
COc1cc2c(cc1OC)-c1c(OC)c(OC)cc3c1[C@H](C2)N(C)CC3 [Glaucine, reference compound] |  |  |  | IC50 (cAMP-related PDEs): 59.8 µM
COc1ccccc1C=Cc1ccc(N(C)C)cc1 [Compound 5, 4-[2-(2-Methoxyphenyl)-ethenyl]-N,N-dimethylbenzenamine] | 55 | 2.1 µM | 14.1 | 
Clc1cccc(Cl)c1C=Cc1ccccn1 [Compound 1, 2-[2-(2,6-Dichlorophenyl)-ethenyl] pyridine] | 109 | 28.7 µM | 63.7 | 
COc1cc(C=Cc2ccncc2)cc(OC)c1OC [Compound 4, 4-[2-(3,4,5-Trimethoxyphenyl)-ethenyl] pyridine] | 77 | 8.6 µM | 12.6 | 
COc1cc(C=Cc2ccccn2)cc(OC)c1OC [Compound 2, 2-[2-(3,4,5-Trimethoxyphenyl)-ethenyl] pyridine] | 51 | 47.4 µM | 25.5 | 
CC(=O)O[C@@H]1C(=O)CCC2=CCC[C@H](C)[C@@]2(C)/C=C\1C [Compound 6, 4-acetoxy-2,8-neolemnadien-5-one] | 51 | 36.2 µM |  | PDE7A inhibitory activity (in words) [1]: weak
COc1cc(C=Cc2cccnc2)cc(OC)c1OC [Compound 3, 3-[2-(3,4,5-Trimethoxyphenyl)-ethenyl] pyridine] | 87 | 4.5 µM | 5.7 | 
Cc1c(O)c(C)c2c(c1O)C(=O)O[C@](C)(O)[C@H]2C [Compound 7, (3S,4S)-sclerotinin A] | 53 | ~5.6 µM and 5.6 µM | 28.2 | PDE4B inhibitory activity (in words) [2]: weak
